From patent US20220380342A1, “BIPHENYL DERIVATIVES FOR BLOCKING PD-1/PD-L1 INTERACTION, PREPARATION METHOD THEREFOR AND USE THEREOF” (Abbisko Therapeutics Co., Ltd., priority 2019, published 2022) come the findings set out here.

Structures are written as SMILES.

The target in experiment [1] is T1, interaction between PD-1 and PD-L1 (Homo sapiens, UniProt Q9NZQ7).
T1 construct: purchased Cisbio 64ICP01PEG or 64ICP01PEH
Put plainly: PD1-PDL1 HTRF binding activity test. The settings on record: Cisbio PD-1/PD-L1 binding assay kit; percent inhibition vs DMSO. As to the method: The effect of compounds of the examples of the present invention on the interaction between PD-1 and PD-L1 was determined by the PD-1/PD-L1 binding assay kit from Cisbio (#64ICP01PEG or 64ICP01PEH). The detailed experimental process was as follows:
1) Pre-diluted compound solution, 4 μL of Tag1-PD-L1 and 4 μL of Tag2-PD1 were added to each well of a 384-well plate;
2) After the mixture was incubated at room temperature for 15 min, 5 μL of anti-Tag1-Eu3+ antibody and 5 μL of anti-Tag2-XL665 antibody were then added;
3) After incubated for 2 hrs at room temperature or overnight at 4° C., plates were read on Envision of Perkin Elmer; and readings at 665 nm and 620 nm were recorded, and the ratio of the two readings was taken as a reading for each well;
4) The reading of each well after compound treatment was compared with the reading of DMSO treated wells to obtain the percent inhibition of the compound; and
5) IC50 values of compounds of the examples of the present invention were determined by non-linear regression analysis of percent inhibition at different compound concentrations.
Background: TR-FRET usually uses a lanthanide donor and a delayed reading to cut background.

For experiment [2], the target named is T2, interaction between PD-1 and PD-L1 expressed on cell surfaces (Jurkat/NF-κB-luc/PD1 cells cocultured with Raji-PD-L1 cells) (Homo sapiens, UniProt Q9NZQ7).
T2 construct: expressed in transfected cells; host or cells: Raji cells (PD-L1); Jurkat cells (PD-1, NF-κB-luc reporter)
T2 sequence (Q9NZQ7 19-290): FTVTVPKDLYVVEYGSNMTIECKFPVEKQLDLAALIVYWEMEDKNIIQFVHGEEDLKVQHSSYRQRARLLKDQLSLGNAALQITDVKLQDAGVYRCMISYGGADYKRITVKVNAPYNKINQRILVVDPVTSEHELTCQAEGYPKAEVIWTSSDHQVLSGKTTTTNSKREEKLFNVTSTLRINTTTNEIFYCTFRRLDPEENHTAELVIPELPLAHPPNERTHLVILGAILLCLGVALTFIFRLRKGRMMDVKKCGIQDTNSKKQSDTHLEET
Put plainly: Jurkat reporter gene cellular assay. The format is cell-based. The settings on record: OKT3 1 μg/mL stimulation, 6 hrs, activation fold vs DMSO. Here is the method:
The effect of compounds of the examples of the present invention on the interaction between PD-1 and PD-L1 expressed on cell surfaces, and the related influence on T cell functions, were determined by a Jurkat reporter gene cellular assay.
Briefly, the reporter gene plasmid of NF-κB-luc and the plasmid of human PD-1 were transfected into Jurkat cells to establish a stably transfected cell line capable of stably expressing both PD-1 and NF-κB-Luc reporter genes; the expression level of PD-1 on the cell surface was confirmed by flow cytometry; and the expression of the reporter gene was confirmed via the response of the reporter gene stimulated by OKT-3 and Raji cells.
In addition, the plasmid of human PD-L1 was transfected into Raji cells to obtain a cell line capable of stably expressing PD-L1. Jurkat/NF-κB-luc/PD1 cells and Raji-PD-L1 cells were then cocultured and stimulated with OKT-3. On this basis, the compounds were added, and the enhancement of the signal pathway of T cell activation by the inhibitory effect of the compounds on the interaction between PD-1 and PD-L1 was evaluated by readings of reporter gene responses. The specific experimental process was as follows:
1) 30 μL of compound or antibody solution was added to each well of a white 96-well plate (Corning, 3610) at different diluted concentrations, and 10 μL of OKT3 (Biolegend, 317326) was then added (the final concentration of OKT3: 1 μg/mL);
2) 20 μL of Raji-PD-L1 cell suspension was added to each well with 5*10^4 cells for each well, and was incubated in an incubator for 20 min;
3) 20 μL of Jurkat/NF-Kb-luc/PD-1 cell suspension was added to each well with 5*10^4 cells for each well, and was well mixed, and 6 hrs later, Bright-glo (Promega, E2620) was applied and plates were read on Envision;
4) The reading of each well treated with the compound was compared with the reading of each well treated with DMSO to obtain the activation fold of the compound; and
5) EC50 values of compounds of the examples of the present invention were determined by non-linear regression analysis of activation folds at different compound concentrations.
On the technique in general: In a reporter assay the amount or activity of a reporter protein is the signal.

T1 sequence (Q9NZQ7 19-238 limits assumed): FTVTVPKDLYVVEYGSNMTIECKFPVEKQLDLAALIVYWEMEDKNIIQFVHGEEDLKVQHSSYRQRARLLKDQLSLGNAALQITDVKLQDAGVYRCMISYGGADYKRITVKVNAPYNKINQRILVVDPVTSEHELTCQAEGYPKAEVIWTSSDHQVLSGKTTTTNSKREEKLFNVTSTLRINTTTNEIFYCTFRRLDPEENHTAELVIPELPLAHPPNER

Consider `Cc1c(NC(=O)c2cc(C3CC3)c(CN[C@H]3CCC[C@@H]3O)cn2)cccc1-c1cccc(NC(=O)c2cc(C3CC3)c(CN3CCCC[C@H]3C(=O)O)cn2)c1C` [Example 4, (S)-1-((4-cyclopropyl-6-((3′-(4-cyclopropyl-5-((((1S,2S)-2-hydroxycyclopentyl)amino)methyl)picolinamido)-2, 2′-dimethyl-[1,1′-biphenyl]-3-yl)carbamoyl)pyridin-3-yl)methyl)piperidine-2-carboxylic acid], for which the IC50 in experiment [1] was 1.02 nM. The compound also gave an EC50 in experiment [2] of 3.2 nM.
Consider `Cc1c(NC(=O)c2cc(C3CC3)c(CN[C@H](CO)C(=O)O)cn2)cccc1-c1cccc(NC(=O)c2cc(C3CC3)c(CN3CCCC[C@H]3C(=O)O)cn2)c1C` [Example 30, (S)-1-((6-((3′-(5-((((R)-1-carboxy-2-hydroxyethyl)amino)methyl)-4-cyclopropylpicolinamido)-2,2′-dimethyl-[1,1′-biphenyl]-3-yl)carbamoyl)-4-cyclopropylpyridin-3-yl)methyl)piperidine-2-carboxylic acid], for which the IC50 in experiment [1] is 0.97 nM. Besides, a half-maximal effect in experiment [2] (EC50) was put at 18.1 nM.
The like results for `CCOC(=O)[C@@H](CO)NCc1cnc(C(=O)Nc2cccc(-c3cccc(NC(=O)c4cc(C5CC5)c(CNCCO)cn4)c3C)c2C)cc1C1CC1` [Example 35-1, ethyl ((4-cyclopropyl-6-((3′-(4-cyclopropyl-5-(((2-hydroxyethyl)amino)methyl)picolinamido)-2,2′-dimethyl-[1,1′-biphenyl]-3-yl)carbamoyl)pyridin-3-yl)methyl)-D-serinate] were, in that order, 3.03 nM and 231 nM.
`CNCc1cnc(C(=O)Nc2cccc(-c3cccc(NC(=O)c4cc(C5CC5)c(CN5CCCC[C@H]5C(=O)O)cn4)c3C)c2C)cc1C1CC1` [Example 7, (S)-1-((4-cyclopropyl-6-((3′-(4-cyclopropyl-5-((methylamino)methyl)picolinamido)-2,2′-dimethyl-[1,1′-biphenyl]-3-yl)carbamoyl)pyridin-3-yl)methyl) piperidine-2-carboxylic acid] gave an IC50 in experiment [1] of 0.49 nM. This compound also displayed an EC50 in experiment [2] of 24.1 nM.
As to `Cc1c(NC(=O)c2cc(C3CC3)c(CN[C@H](CO)C(=O)O)cn2)cccc1-c1cccc(NC(=O)c2cc(C3CC3)c(CN3CCC[C@H]3CO)cn2)c1C` [Example 54], the IC50 in experiment [1] stood at 0.91 nM. In experiment [2], this compound came in with an EC50 of 62.3 nM.
For `Cc1c(NC(=O)c2cc(C3CC3)c(CNC(C)CO)cn2)cccc1-c1cccc(NC(=O)c2cc(C3CC3)c(CN3CCCC[C@H]3C(=O)O)cn2)c1C` (stereo in doubt) [Example 3, (S)-1-((4-cyclopropyl-6-((3′-(4-cyclopropyl-5-((((R)-1-hydroxypropan-2-yl)amino)methyl)picolinamido)-2,2′-dimethyl-[1,1′-biphenyl]-3-yl)carbamoyl)pyridin-3-yl)methyl)piperidine-2-carboxylic acid] the same measures were 1.07 nM and 14.9 nM.
The like results for `Cc1c(NC(=O)c2cc(C3CC3)c(CNC3CC3)cn2)cccc1-c1cccc(NC(=O)c2cc(C3CC3)c(CN3CCCC[C@H]3C(=O)O)cn2)c1C` [Example 10, (S)-1-((4-cyclopropyl-6-((3′-(4-cyclopropyl-5-((cyclopropylamino)methyl)picolinamido)-2,2′-dimethyl-[1,1′-biphenyl]-3-yl)carbamoyl)pyridin-3-yl)methyl) piperidine-2-carboxylic acid] were, in that order, 3.38 nM and 120 nM.
For `Cc1c(NC(=O)c2cc(C3CC3)c(CN[C@H](CO)C(=O)O)cn2)cccc1-c1cccc(NC(=O)c2cc(C3CC3)c(CN3CCC[C@@H]3CO)cn2)c1C` [Example 55] the same measures were 3.18 nM and 99.5 nM.
Consider `Cc1c(NC(=O)c2cc(C3CC3)c(CNC3COC3)cn2)cccc1-c1cccc(NC(=O)c2cc(C3CC3)c(CN3CCCC[C@H]3C(=O)O)cn2)c1C` [Example 23, (S)-1-((4-cyclopropyl-6-((3′-(4-cyclopropyl-5-((oxetan-3-ylamino)methyl)picolinamido)-2,2′-dimethyl-[1,1′-biphenyl]-3-yl)carbamoyl)pyridin-3-yl)methyl)piperidine-2-carboxylic acid], for which the IC50 in experiment [1] was 2.57 nM. In addition, in experiment [2], the EC50 worked out at 77.5 nM.
The like results for `CCOC(=O)[C@@H](CO)NCc1cnc(C(=O)Nc2cccc(-c3cccc(NC(=O)c4cc(C5CC5)c(CN5CCCC[C@H]5C(=O)O)cn4)c3C)c2C)cc1C1CC1` [Example 29, (S)-1-((4-cyclopropyl-6-((3′-(4-cyclopropyl-5-((((R)-1-ethoxy-3-hydroxy-1-oxopropan-2-yl)amino)methyl)picolinamido)-2,2′-dimethyl-[1,1′-biphenyl]-3-yl)carbamoyl)pyridin-3-yl)methyl)piperidine-2-carboxylic acid] were, in that order, 1.61 nM and 115 nM.
For `CCOC(=O)[C@@H](CO)NCc1cnc(C(=O)Nc2cccc(-c3cccc(NC(=O)c4cc(C5CC5)c(CN[C@H](C)CO)cn4)c3C)c2C)cc1C1CC1` [Example 38-1, Ethyl ((4-cyclopropyl-6-((3′-(4-cyclopropyl-5-((((R)-1-hydroxypropan-2-yl)amino)methyl)picolinamido)-2,2′-dimethyl-[1,1′-biphenyl]-3-yl)carbamoyl)pyridin-3-yl)methyl)-D-serinate] the same measures were 4.77 nM and 219 nM.
The like results for `Cc1c(NC(=O)c2cc(C3CC3)c(CN[C@@](C)(CO)C(=O)O)cn2)cccc1-c1cccc(NC(=O)c2cc(C3CC3)c(CN[C@@](C)(CO)C(=O)O)cn2)c1C` [Example 67, (2S,2′S)-2,2′-((((((2,2′-dimethyl-[1,1′-biphenyl]-3,3′-diyl)bis(azanediyl))bis(carbonyl))bis(4-cyclopropylpyridine-6,3-diyl))bis(methylene))bis(azanediyl))bis(3-hydroxy-2-methylpropanoic acid)] were, in that order, 0.61 nM and 19.7 nM.
In experiment [1], `Cc1c(NC(=O)c2cc(C3CC3)c(CNCCO)cn2)cccc1-c1cccc(NC(=O)c2cc(C3CC3)c(CN[C@@H](CO)C(=O)O)cn2)c1C` [Example 37, ((4-cyclopropyl-6-((3′-(4-cyclopropyl-5-(((2-hydroxyethyl)amino)methyl)picolinamido)-2,2′-dimethyl-[1,1′-biphenyl]-3-yl)carbamoyl)pyridin-3-yl)methyl)-L-serine] yielded an IC50 of 0.95 nM. This compound also registered an EC50 in experiment [2] of 25.2 nM.
The like results for `Cc1c(NC(=O)c2cc(C3CC3)c(CN[C@H](C)CO)cn2)cccc1-c1cccc(NC(=O)c2cc(C3CC3)c(CN3CCCC[C@H]3C(=O)O)cn2)c1C` [Example 2, (S)-1-((4-cyclopropyl-6-((3′-(4-cyclopropyl-5-((((R)-1-hydroxypropan-2-yl)amino)methyl)picolinamido)-2,2′-dimethyl-[1,1′-biphenyl]-3-yl)carbamoyl)pyridin-3-yl)methyl)piperidine-2-carboxylic acid] were, in that order, 1.21 nM and 9.2 nM.
As to `Cc1c(NC(=O)c2cc(C3CC3)c(CN[C@H]3CCOC3)cn2)cccc1-c1cccc(NC(=O)c2cc(C3CC3)c(CN3CCCC[C@H]3C(=O)O)cn2)c1C` [Example 25, (S)-1-((4-cyclopropyl-6-((3′-(4-cyclopropyl-5-((((S)-tetrahydrofuran-3-yl)amino)methyl)picolinamido)-2,2′-dimethyl-[1,1′-biphenyl]-3-yl)carbamoyl)pyridin-3-yl)methyl)piperidine-2-carboxylic acid], in experiment [1], the IC50 turned out to be 0.91 nM. Further, a half-maximal effect in experiment [2] (EC50) was put at 8.7 nM.

For orientation: IC50 means the concentration that inhibits the measured activity by half. The low end stands for greater potency, the high end for weaker potency. Broadly, the EC50 is the concentration giving half of the maximal effect. Low values mean greater potency, high ones weaker potency.
